Assay results: patent US20250319073A1, “COMPOSITIONS AND METHODS FOR THE TREATMENT OF HUNTINGTON’S DISEASE AND HTT PROTEINOPATHIES” (priority 2022, published 2025)

Experiments:
R6/2 mice = test: Rotarod test in R6/2 mice; assay type: in vivo, mouse; details: 5 mg/kg i.p. QD, 10 weeks of age, p<0.05, One-way ANOVA
Description: Study Summary—A total of 46 male R6/2 mice and 15 male wild-type littermate control mice (WT) were used in the study. The mice were genotyped and the R6/2 mice were divided into different treatment groups based on their pre-treatment body weight. The treatment with Compound (Ia) (0.5 or 5 mg/kg; 10 ml/kg, intraperitoneally (i.p.), QD) or Vehicle (10 ml/kg, i.p., QD) was started at 4 weeks of age. Body weights were measured before the treatment onset and continued twice a week until the end of the study. Fine motor kinematic analysis and rotarod test were performed at 10 weeks of age and the open field activity and clasping behavior were measured at 12 weeks of age for all mice. At 8 and 12 weeks of age the glucose uptake was measured by ^18F-FDG PET and the striatal metabolites were measured using MR spectroscopy for 9-10 mice per group. At 13 weeks of age 9-10 mice per group were subjected to tissue sample collection, and the brain and blood samples were collected. The blood samples were used to prepare peripheral blood mononuclear cells (PBMCs) on which the flow cytometry/luminescence analysis was performed for following assays: mitochondrial reactive oxygen species (ROS) (MitoSox), and ATP levels (Cell TiterGlow). […]
Rotarod Test—At 10 weeks of age all mice were subjected to rotarod test. […] The latency to fall from the rod was recorded.

[1] = test system: Peripheral Blood Mononuclear Cells (PBMC); test: CellTiter-Glo 2.0 ATP level assay in PBMCs of treated mice; assay type: in vivo, mouse; details: R6/2 mice, 0.5 mg/kg / 5 mg/kg i.p. QD, PBMCs collected at 13 weeks of age
Description: Euthanasia & Sample Collection—At 13 weeks of age, 9 mice per group were euthanized by deep anesthesia with sodium pentobarbital (180 mg/kg). The remaining mice were euthanized and any samples were not collected, except the tail and ear samples. A terminal blood sample (as much as possible) was collected by cardiac puncture into a syringe. The whole blood was placed in Li-Hep tube at RT and used immediately for preparation of PBMCs. The whole brain was collected and fresh frozen in liquid nitrogen and stored at −80° C. Blood was collected also from extra animals as staining controls for the flow cytometry assays (n=3 extra animals per day). […]
PBMC Extraction—Whole blood (approximately 400-500 μL) was stored at room temperature (RT) before the start of the PBMC isolations. […] Right before measurement 1 μL of propidium iodide was added and the cell number and viability was determined by MACSquant Analyzer 10 flow cytometer. […]
The cells were analyzed immediately after the staining using the MACSQuant Analyzer 10 (Miltenyi Biotec) and Cytation 3 (Cell titerglow). […]
ATP Levels: CellTiter-Glo 2.0® Assay—The CellTiter-Glo® 2.0 Assay provides a homogeneous method to determine the number of viable cells in culture by quantitating the amount of ATP present, which indicates the presence of metabolically active cells. […]
• 1. […] Place 50,000 cells/well white walled luminescence suitable plate in DPBS. • 3. […]

Cc1cc(O)cc(C)c1C[C@H](NC(=O)[C@H](N)CCCNC(=N)N)C(=O)N[C@@H](CCCCN)c1nc(Cc2ccccc2)no1.Cl.Cl [Compound (Ia), (R)-2-amino-N—((S)-1-(((S)-5-amino-1-(3-benzyl-1,2,4-oxadiazol-5-yl)pentyl)amino)-3-(4-hydroxy-2,6-dimethylphenyl)-1-oxopropan-2-yl)-5-guanidinopentanamide]
latency to fall in rotarod compared to vehicle treated R6/2 mice (R6/2 mice): increased latency | ATP levels (Cell Titer Glow) in PBMCs, R6/2+Vehicle vs treated R6/2 [1]: no significant differences
